According to ChEMBL document CHEMBL1154512, “PA-824 kills nonreplicating Mycobacterium tuberculosis by intracellular NO release” (2008):
Activity calls are given as the source filed them. No cut-off for these calls is given here.

Test system: Mycobacterium tuberculosis
Experiment: Bactericidal activity against Mycobacterium tuberculosis prcAB/tetR mutant after 3 days under anaerobic condition by serial dilution method
Type: functional, organism-based

## O=[N+]([O-])c1cn2c(n1)OC[C@@H](OCc1ccc(OC(F)(F)F)cc1)C2 [PRETOMANID]
  Activity: Active
